Test results from article PMC4684479 (Molecular imaging and biology : MIB : the official …, 2016).

Experiments:
bovine serum albumin = bovine serum albumin (Bos taurus, UniProt P02769); assay: Serum protein binding by gel filtration chromatography; type: in vitro ADME; conditions: GFC after incubation in bovine serum albumin solution at 37°C for 4 h
[1] = set-up: species or system Sprague-Dawley rat; conditions: rat, in vivo, iv
[2] = in serum; cited from earlier work
[3] = Optical properties of NIR fluorophores in 100% serum, pH 7.4; type: physicochemical
[4] = Stability in warm serum, 24 h, 37°C; type: in vitro ADME; conditions: 100% serum, pH 7.4, 24 h
[5] = conventional NIR fluorophores; cited from earlier work

Chain of bovine serum albumin (P02769 25-607): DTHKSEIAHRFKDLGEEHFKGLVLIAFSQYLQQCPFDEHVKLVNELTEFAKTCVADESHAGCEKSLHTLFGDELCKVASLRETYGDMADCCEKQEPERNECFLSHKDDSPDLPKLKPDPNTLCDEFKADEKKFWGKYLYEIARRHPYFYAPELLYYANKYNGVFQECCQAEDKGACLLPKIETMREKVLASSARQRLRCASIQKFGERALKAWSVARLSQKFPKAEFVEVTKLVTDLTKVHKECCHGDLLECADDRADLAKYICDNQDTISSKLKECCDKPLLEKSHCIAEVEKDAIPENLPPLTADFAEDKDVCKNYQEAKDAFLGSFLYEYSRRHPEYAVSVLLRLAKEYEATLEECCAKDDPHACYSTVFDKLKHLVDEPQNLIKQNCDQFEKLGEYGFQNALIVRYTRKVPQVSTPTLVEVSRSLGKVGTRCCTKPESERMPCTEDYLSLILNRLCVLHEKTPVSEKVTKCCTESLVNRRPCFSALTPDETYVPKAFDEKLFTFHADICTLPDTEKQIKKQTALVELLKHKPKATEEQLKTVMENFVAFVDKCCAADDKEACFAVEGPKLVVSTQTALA

Row | Serum protein binding (bovine serum albumin) | Absorbance Maximum [3] | Emission Maximum [3] | Extinction Coefficient [3] | Quantum Yield [3] | Stokes Shift [3] | Stability (%) at 24 h, 37°C [4] | SMILES | clearance route seen by dual-channel imaging [1] | molar extinction coefficient (ε) [2] | quantum yield (QY) [2] | LogD at pH 7.4 [5]
1 | significant serum protein binding | – | – | – | – | – | – | CC1(C)C(/C=C/C=C/C=C/C=C2\N(CCCCS(=O)(=O)[O-])c3ccc4ccccc4c3C2(C)C)=[N+](CCCCS(=O)(=O)[O-])c2ccc3ccccc3c21.[Na+] [ICG] | extracted from blood by the liver and excreted into bile | 121,000 M^−1cm^−1 | 9.3% | –
2 | – | 665 nm | 685 nm | 71,200 M^−1cm^−1 | 3.8% | 20 nm | 99% | CN(C)c1ccc2nc3ccc(=[N+](C)C)cc-3sc2c1 [Methylene Blue] | – | – | – | –
3 | – | – | – | – | – | – | – | CC1(C)C(=CC=C2CCCC(C=CC3=[N+](CCCCCC(=O)[O-])c4ccc(S(=O)(=O)[O-])cc4C3(C)C)=C2Oc2ccc(S(=O)(=O)[O-])cc2)N(CCCCS(=O)(=O)[O-])c2ccc(S(=O)(=O)[O-])cc21.[Na+].[Na+].[Na+].[Na+] [IRDye 800CW] | – | – | – | 2.51
4 | – | 646 nm | 663 nm | 199,000 M^−1cm^−1 | 19.5% | 17 nm | 99% | CC1(C)C(/C=C/C(=C/C=C2/N(CCC[N+](C)(C)C)c3ccc(S(=O)(=O)[O-])cc3C2(C)C)c2ccc(CCC(=O)[O-])cc2)=[N+](CCC[N+](C)(C)C)c2ccc(S(=O)(=O)[O-])cc21 [ZW700-1c] | – | – | – | –
